The target in the experiment is T1, human glucocorticoid receptor (Homo sapiens, UniProt P04150).
T1 construct: purified human recombinant full-length glucocorticoid receptor; purchased Invitrogen Part #2893
T1 sequence (P04150 1-777): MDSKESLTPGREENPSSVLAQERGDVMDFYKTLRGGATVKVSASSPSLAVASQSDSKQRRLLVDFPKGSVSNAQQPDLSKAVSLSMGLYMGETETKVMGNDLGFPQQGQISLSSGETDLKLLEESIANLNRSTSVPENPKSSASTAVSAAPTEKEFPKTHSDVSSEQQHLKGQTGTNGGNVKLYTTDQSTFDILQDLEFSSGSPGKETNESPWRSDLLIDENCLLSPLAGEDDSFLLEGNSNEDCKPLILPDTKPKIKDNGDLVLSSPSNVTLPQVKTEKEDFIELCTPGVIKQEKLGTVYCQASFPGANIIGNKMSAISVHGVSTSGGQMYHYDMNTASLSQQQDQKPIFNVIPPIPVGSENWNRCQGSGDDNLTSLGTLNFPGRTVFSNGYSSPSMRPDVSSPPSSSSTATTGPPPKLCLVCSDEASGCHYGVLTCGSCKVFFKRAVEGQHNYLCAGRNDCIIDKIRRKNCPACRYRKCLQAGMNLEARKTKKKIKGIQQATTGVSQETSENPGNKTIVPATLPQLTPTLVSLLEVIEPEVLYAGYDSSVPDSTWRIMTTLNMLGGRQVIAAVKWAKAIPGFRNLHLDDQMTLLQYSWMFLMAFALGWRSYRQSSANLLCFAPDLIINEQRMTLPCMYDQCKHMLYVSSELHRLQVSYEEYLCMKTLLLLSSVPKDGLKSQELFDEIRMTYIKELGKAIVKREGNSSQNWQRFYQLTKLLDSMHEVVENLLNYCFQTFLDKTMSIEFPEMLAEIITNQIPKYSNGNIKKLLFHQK
Briefly: Glucocorticoid Receptor Binding Assay (I), fluorescence polarization competitor kit (Fluormone GS Red). Particulars: GR Binding Assay (I). The procedure:
Glucocorticoid Receptor Binding Assay (I)^a
In order to assess the affinity of test compounds for the human glucocorticoid receptor, a commercially available kit was used (Glucocorticoid Receptor Competitor Assay Kit, Invitrogen Part #2893). Briefly, purified human recombinant full-length glucocorticoid receptor (2 nM) was mixed with fluorescently labeled glucocorticoid (1 nM Fluormone GS Red) in the presence or absence of test compound. After two hour incubation at room temperature in the dark, the fluorescence polarization (FP) of the samples was measured. […] Test compounds were analyzed in the concentration range from 8.5 E-05 μM to 5 μM.
A general note: Polarisation of emitted light reports the rotation of a fluorescent probe.

This passage reports Ki results from patent US7968577B2 (Bristol-Myers Squibb Company, priority 2006, dated 2011).

As to `CC(C)Oc1ccc(-c2ccc(C(c3ccccc3)C(C)(C)C(=O)Nc3nncs3)cc2)cc1F` (centres unmarked) [Example 385, 3-(3′-fluoro-4′-((1-methylethyl)oxy)-4-biphenylyl)-2,2-dimethyl-3-phenyl-N-1,3,4-thiadiazol-2-ylpropanamide], the Ki was 13.8 nM.
In the case of `CC(C)CC(c1ccc(Br)cc1)C(C)(C)C(=O)Nc1nccs1` (centres unmarked) [Example 386, 3-(4-bromophenyl)-2,2,5-trimethyl-N-1,3-thiazol-2-ylhexanamide] it was 20.6 nM.
In the case of `CC(C)CC(c1ccc(Br)cc1)C(C)(C)C(=O)Nc1nncs1` (centres unmarked) [Example 387, 3-(4-bromophenyl)-2,2,5-trimethyl-N-1,3,4-thiadiazol-2-ylhexanamide] it was 17.1 nM; in that of `Cc1nnc(NC(=O)C(C)(C)C(CC(C)C)c2ccc(N3CCOCC3)cc2)s1` (centres unmarked) [Example 388, 2,2,5-trimethyl-N-(5-methyl-1,3,4-thiadiazol-2-yl)-3-(4-(4-morpholinyl)phenyl)hexanamide], 14 nM.
As for `CC(C)CC(c1ccc(N2CCOCC2)cc1)C(C)(C)C(=O)Nc1nccs1` (centres unmarked) [Example 389, 2,2,5-trimethyl-3-(4-(4-morpholinyl)phenyl)-N-1,3-thiazol-2-ylhexanamide], the figure is 4.65 nM; as for `CC(C)CC(c1ccc(N2CCOCC2)cc1)C(C)(C)C(=O)Nc1nncs1` (centres unmarked) [Example 390, 2,2,5-trimethyl-3-(4-(4-morpholinyl)phenyl)-N-1,3,4-thiadiazol-2-ylhexanamide], 5.41 nM.
Consider `COc1ccc(-c2ccc(C(CC(C)C)C(C)(C)C(=O)Nc3nccs3)cc2)cc1` (centres unmarked) [Example 391, 2,2,5-trimethyl-3-(4′-(methyloxy)-4-biphenylyl)-N-1,3-thiazol-2-ylhexanamide], for which the Ki was 11.1 nM.
As for `CC(C)CC(c1ccc(-c2ccc(C(=O)N(C)C)cc2)cc1)C(C)(C)C(=O)Nc1nccs1` (centres unmarked) [Example 392, 4′-(1-(1,1-dimethyl-2-oxo-2-(1,3-thiazol-2-ylamino)ethyl)-3-methylbutyl)-N,N-dimethyl-4-biphenylcarboxamide], the figure is 6.83 nM; as for `CC(C)CC(c1ccc(-c2ccc(C(=O)N(C)C)cc2)cc1)C(C)(C)C(=O)Nc1nncs1` (centres unmarked) [Example 393, 4′-(1-(1,1-dimethyl-2-oxo-2-(1,3,4-thiadiazol-2-ylamino)ethyl)-3-methylbutyl)-N,N-dimethyl-4-biphenylcarboxamide], 3.68 nM; as for `COc1ccc(-c2ccc(C(CC(C)C)C(C)(C)C(=O)Nc3nncs3)cc2)cc1` (centres unmarked) [Example 394, 2,2,5-trimethyl-3-(4′-(methyloxy)-4-biphenylyl)-N-1,3,4-thiadiazol-2-ylhexanamide], 9.28 nM.
For `CC(C)Cc1ccc(-c2ccc(C(CC(C)C)C(C)(C)C(=O)Nc3nncs3)cc2)cc1` (centres unmarked) [Example 397, 2,2,5-trimethyl-3-(4′-(2-methylpropyl)-4-biphenylyl)-N-1,3,4-thiadiazol-2-ylhexanamide], affinity was put at a Ki of 12.1 nM.
As for `CCCc1ccc(-c2ccc(C(CC(C)C)C(C)(C)C(=O)Nc3nncs3)cc2)cc1` (centres unmarked) [Example 399, 2,2,5-trimethyl-3-(4′-propyl-4-biphenylyl)-N-1,3,4-thiadiazol-2-ylhexanamide], the figure is 7.1 nM.
As for `CC(C)(C(=O)Nc1nncs1)C(c1ccccc1)c1ccc(-c2cccc(Cl)c2)cc1` (centres unmarked) [Example 409, 3-(3′-chloro-4-biphenylyl)-2,2-dimethyl-3-phenyl-N-1,3,4-thiadiazol-2-ylpropanamide], the figure is 25.4 nM; as for `COc1cccc(-c2ccc(C(c3ccccc3)C(C)(C)C(=O)Nc3nncs3)cc2)c1` (centres unmarked) [Example 410, 3-(3′-methoxy-4-biphenylyl)-2,2-dimethyl-3-phenyl-N-1,3,4-thiadiazol-2-ylpropanamide], 4.45 nM; as for `COc1ccccc1-c1ccc(C(c2ccccc2)C(C)(C)C(=O)Nc2nncs2)cc1` (centres unmarked) [Example 411, 3-(2′-methoxy-4-biphenylyl)-2,2-dimethyl-3-phenyl-N-1,3,4-thiadiazol-2-ylpropanamide], 154 nM.
As for `CC(C)(C(=O)Nc1nncs1)C(c1ccccc1)c1ccc(-c2ccc(O)cc2)cc1` (centres unmarked) [Example 412, 3-(4′-hydroxy-4-biphenylyl)-2,2-dimethyl-3-phenyl-N-1,3,4-thiadiazol-2-ylpropanamide], the figure is 16.5 nM; as for `CC(=O)c1cccc(-c2ccc(C(c3ccccc3)C(C)(C)C(=O)Nc3nncs3)cc2)c1` (centres unmarked) [Example 413, 3-(3′-acetyl-4-biphenylyl)-2,2-dimethyl-3-phenyl-N-1,3,4-thiadiazol-2-ylpropanamide], 110 nM.
Compound `CC(=O)Nc1ccc(-c2ccc(C(c3ccccc3)C(C)(C)C(=O)Nc3nncs3)cc2)cc1` (centres unmarked) [Example 414, 3-(4′-acetamido-4-biphenylyl)-2,2-dimethyl-3-phenyl-N-1,3,4-thiadiazol-2-ylpropanamide] displayed a Ki of 9.27 nM.
Compound `CC(C)(C(=O)Nc1nncs1)C(c1ccccc1)c1ccc(-c2ccc3c(c2)CCO3)cc1` (centres unmarked) [Example 415, 3-(4-(2,3-dihydro-1-benzofuran-5-yl)phenyl)-2,2-dimethyl-3-phenyl-N-1,3,4-thiadiazol-2-ylpropanamide] yielded a Ki of 6.08 nM.
As for `CCCCOc1ccc(-c2ccc(C(c3ccccc3)C(C)(C)C(=O)Nc3nncs3)cc2)cc1` (centres unmarked) [Example 416, 3-(4′-butoxy-4-biphenylyl)-2,2-dimethyl-3-phenyl-N-1,3,4-thiadiazol-2-ylpropanamide], the figure is 42.5 nM.
`CC(C)(C)c1ccc(-c2ccc(C(c3ccccc3)C(C)(C)C(=O)Nc3nncs3)cc2)cc1` (centres unmarked) [Example 417, 3-(4′-tert-butyl-4-biphenylyl)-2,2-dimethyl-3-phenyl-N-1,3,4-thiadiazol-2-ylpropanamide]: affinity was put at a Ki of 52.9 nM.
`CCCCc1ccc(-c2ccc(C(c3ccccc3)C(C)(C)C(=O)Nc3nncs3)cc2)cc1` (centres unmarked) [Example 418, 3-(4′-butyl-4-biphenylyl)-2,2-dimethyl-3-phenyl-N-1,3,4-thiadiazol-2-ylpropanamide] returned a Ki of 26.5 nM.
As for `CCOc1ccc(-c2ccc(C(c3ccccc3)C(C)(C)C(=O)Nc3nncs3)cc2)cc1` (centres unmarked) [Example 419, 3-(4′-ethoxy-4-biphenylyl)-2,2-dimethyl-3-phenyl-N-1,3,4-thiadiazol-2-ylpropanamide], the figure is 5.53 nM; as for `COc1ccc(-c2ccc(C(c3ccccc3)C(C)(C)C(=O)Nc3nncs3)cc2)cc1F` (centres unmarked) [Example 420, 3-(3′-fluoro-4′-methoxy-4-biphenylyl)-2,2-dimethyl-3-phenyl-N-1,3,4-thiadiazol-2-ylpropanamide], 13.3 nM.
Compound `CC(C)(C(=O)Nc1nncs1)C(c1ccccc1)c1ccc(-c2ccc(CO)cc2)cc1` (centres unmarked) [Example 421, 3-(4′-(hydroxymethyl)-4-biphenylyl)-2,2-dimethyl-3-phenyl-N-1,3,4-thiadiazol-2-ylpropanamide] registered a Ki of 5.72 nM.
As for `CN1CCN(C(=O)c2ccc(-c3ccc(C(c4ccccc4)C(C)(C)C(=O)Nc4nncs4)cc3)cc2)CC1` (centres unmarked) [Example 426, 2,2-dimethyl-3-(4′-((4-methyl-1-piperazinyl)carbonyl)-4-biphenylyl)-3-phenyl-N-1,3,4-thiadiazol-2-ylpropanamide], the figure is 3.68 nM; as for `CC(C)CC(c1ccc(-c2ccc(C(=O)N3CCOCC3)cc2)cc1)C(C)(C)C(=O)Nc1nncs1` (centres unmarked) [Example 427, 2,2,5-trimethyl-3-(4′-(4-morpholinylcarbonyl)-4-biphenylyl)-N-1,3,4-thiadiazol-2-ylhexanamide], 9.28 nM; as for `COCc1ccc(-c2ccc(C(CC(C)C)C(C)(C)C(=O)Nc3nncs3)cc2)cc1` (centres unmarked) [Example 428, 3-(4′-(methoxymethyl)-4-biphenylyl)-2,2,5-trimethyl-N-1,3,4-thiadiazol-2-ylhexanamide], 17.9 nM.
As for `CC(C)CC(c1ccc(-c2ccc(C(=O)NC3CC3)cc2)cc1)C(C)(C)C(=O)Nc1nncs1` (centres unmarked) [Example 429, N-cyclopropyl-4′-(1-(1,1-dimethyl-2-oxo-2-(1,3,4-thiadiazol-2-ylamino)ethyl)-3-methylbutyl)-4-biphenylcarboxamide], the figure is 31 nM; as for `CCOc1ccc(-c2ccc(C(CC(C)C)C(C)(C)C(=O)Nc3nncs3)cc2)cc1` (centres unmarked) [Example 430, 3-(4′-ethoxy-4-biphenylyl)-2,2,5-trimethyl-N-1,3,4-thiadiazol-2-ylhexanamide], 4.87 nM; as for `CC(C)CC(c1ccc(-c2ccccc2)cc1)C(C)(C)C(=O)Nc1nncs1` (centres unmarked) [Example 431, 3-(4-biphenylyl)-2,2,5-trimethyl-N-1,3,4-thiadiazol-2-ylhexanamide], 52.8 nM.
In turn, `CC(C)CC(c1ccc(-c2ccc(Cl)cc2)cc1)C(C)(C)C(=O)Nc1nncs1` (centres unmarked) [Example 432, 3-(4′-chloro-4-biphenylyl)-2,2,5-trimethyl-N-1,3,4-thiadiazol-2-ylhexanamide] yielded a Ki of 184 nM.

Broadly, the Ki is the equilibrium dissociation constant of an inhibitor or competing ligand from its target.
